In patent US20070259329A1, “Anergy-inducing cellular composition” (BioVerde. Inc., priority 2006, published 2007):
Marks after values point to notes of the source that are not given here.

Assays:
Type in all cases: cell-based, murine (C57BI/6 splenocytes)
[1] = molecular target: T1, CD2 (Mus musculus, UniProt P08920); assay: Lymphocyte marker analysis by flow cytometry, CD2 epitope; settings: for percent expression of cell surface molecule CD2: epitope-specific antibody, average of triplicate; for average percent suppression in epitope detection, CD2: relative to untreated control (0 ppm)
T1 construct: endogenous in cells; host or cells: murine splenocytes (C57Bl/6)
T1 sequence (P08920 23-344): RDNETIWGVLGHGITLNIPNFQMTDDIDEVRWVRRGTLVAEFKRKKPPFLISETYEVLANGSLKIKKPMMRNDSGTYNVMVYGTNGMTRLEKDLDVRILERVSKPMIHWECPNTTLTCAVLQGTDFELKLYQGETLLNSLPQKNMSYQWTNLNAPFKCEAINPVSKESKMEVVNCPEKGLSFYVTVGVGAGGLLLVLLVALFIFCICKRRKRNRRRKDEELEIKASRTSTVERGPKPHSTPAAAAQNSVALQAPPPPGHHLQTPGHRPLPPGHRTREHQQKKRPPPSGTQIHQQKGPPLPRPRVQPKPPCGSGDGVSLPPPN
Method: (§1) To evaluate the action of EGCG in rendering cells to become anergy-inducing, murine splenocytes were used as a model system. Splenocytes were collected from BALB/c (H2 K^b) and C57BI/6 (H2 K^d) female mice of 8 to 13 weeks of age in HBSS (BioWhittaker) with 1% FCS. Cells were washed with HBSS (1% FCS) and treated with the media solution which contains RPMI 1640 (Sigma-Aldrich), 10 mM HEPES (Dojindo), and various concentrations of EGCG (98% purity, Roche) described in the examples.
(§2) Flow cytometric analyses of surface epitopes for the control and EGCG-treated splenocytes were performed using a series of fluorescence-labeled monoclonal anti-mouse CD and MHC and corresponding isotype control antibodies (eBioscience: CD2, CD36, CD4, CD11a, CD25, CD 28, CD 49d and CD80; Pharmingen: TCRαβ and MHC II). Murine splenocytes (C57BI/6) were treated with red blood cell lysis buffer (eBioscience) for 5 min prior to EGCG treatments. Immediately following EGCG-treatments, the splenocytes were washed with RPMI 1640 (10% FCS) and a staining buffer (eBioscience) at 4 degree C. Each splenocyte sample was reconstituted as a 50 μl aliquot in the same staining buffer and subject to antibody labeling. After washing twice the samples with the staining buffer, a minimum of 10,000 events per sample was collected on a Becton Dickinson FACScan flow cytometer.

[2] = molecular target: T2, CD4 (Mus musculus, UniProt P06332); assay: Lymphocyte marker analysis by flow cytometry, CD4 epitope; settings: for percent expression of cell surface molecule CD4: epitope-specific antibody, average of triplicate; for average percent suppression in epitope detection, CD4: relative to untreated control (0 ppm)
T2 construct: endogenous in cells; host or cells: murine splenocytes (C57Bl/6)
T2 sequence (P06332 27-457): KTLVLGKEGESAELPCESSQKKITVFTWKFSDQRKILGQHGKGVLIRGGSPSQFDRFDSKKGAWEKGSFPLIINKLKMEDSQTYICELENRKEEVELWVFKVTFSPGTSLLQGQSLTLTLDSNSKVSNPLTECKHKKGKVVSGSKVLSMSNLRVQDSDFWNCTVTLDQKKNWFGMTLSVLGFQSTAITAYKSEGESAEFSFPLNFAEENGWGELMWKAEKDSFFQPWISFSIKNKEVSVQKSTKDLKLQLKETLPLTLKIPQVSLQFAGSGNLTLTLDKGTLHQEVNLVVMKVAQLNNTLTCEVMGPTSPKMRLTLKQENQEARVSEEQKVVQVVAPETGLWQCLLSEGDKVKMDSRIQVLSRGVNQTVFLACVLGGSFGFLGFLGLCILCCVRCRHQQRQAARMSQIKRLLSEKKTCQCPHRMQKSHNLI
Method: as §1, §2

[3] = molecular target: T3, CD49d (Mus musculus, UniProt Q00651); assay: Lymphocyte marker analysis by flow cytometry, CD49d epitope; settings: for percent expression of cell surface molecule CD49d: epitope-specific antibody, average of triplicate; for average percent suppression in epitope detection, CD49d: relative to untreated control (0 ppm)
T3 construct: endogenous in cells; host or cells: murine splenocytes (C57Bl/6)
T3 sequence (Q00651 41-1039): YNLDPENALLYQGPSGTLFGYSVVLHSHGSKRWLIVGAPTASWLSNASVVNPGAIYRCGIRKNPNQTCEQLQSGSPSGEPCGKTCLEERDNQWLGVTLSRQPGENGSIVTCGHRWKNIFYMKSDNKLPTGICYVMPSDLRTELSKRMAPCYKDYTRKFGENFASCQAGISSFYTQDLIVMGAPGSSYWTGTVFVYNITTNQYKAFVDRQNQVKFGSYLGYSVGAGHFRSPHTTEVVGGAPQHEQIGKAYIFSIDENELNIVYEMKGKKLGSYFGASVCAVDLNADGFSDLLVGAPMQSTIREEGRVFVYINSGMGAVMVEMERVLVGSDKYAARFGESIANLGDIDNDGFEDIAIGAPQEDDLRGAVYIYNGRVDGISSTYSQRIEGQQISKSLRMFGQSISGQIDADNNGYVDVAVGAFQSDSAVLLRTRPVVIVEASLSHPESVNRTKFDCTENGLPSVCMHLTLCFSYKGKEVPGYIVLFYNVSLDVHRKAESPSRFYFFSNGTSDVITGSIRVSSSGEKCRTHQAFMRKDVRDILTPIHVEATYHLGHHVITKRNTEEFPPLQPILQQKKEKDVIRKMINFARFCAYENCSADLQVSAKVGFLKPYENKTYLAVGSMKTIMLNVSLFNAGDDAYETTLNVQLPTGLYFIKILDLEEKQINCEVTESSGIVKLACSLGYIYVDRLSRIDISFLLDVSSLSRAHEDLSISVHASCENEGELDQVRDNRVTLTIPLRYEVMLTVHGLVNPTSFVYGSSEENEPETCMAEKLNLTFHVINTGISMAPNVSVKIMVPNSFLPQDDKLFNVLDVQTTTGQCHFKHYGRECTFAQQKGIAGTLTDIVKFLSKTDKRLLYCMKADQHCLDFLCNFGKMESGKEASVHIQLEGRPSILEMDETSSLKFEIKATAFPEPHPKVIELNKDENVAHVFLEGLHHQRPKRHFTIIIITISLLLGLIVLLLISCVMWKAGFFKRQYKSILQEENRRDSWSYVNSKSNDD
Method: as §1, §2

percent expression of cell surface molecule CD2 ([1]; EGCg 100 ppm): 85.9%
average percent suppression in epitope detection, CD2 ([1]; EGCg 100 ppm): (9.5)** percent
percent expression of cell surface molecule CD2 ([1]; EGCg 200 ppm): 90.8%
average percent suppression in epitope detection, CD2 ([1]; EGCg 200 ppm): (4.3)** percent
percent expression of cell surface molecule CD4 ([2]; EGCg 100 ppm): 21.1%
average percent suppression in epitope detection, CD4 ([2]; EGCg 100 ppm): (12.1)* percent
percent expression of cell surface molecule CD4 ([2]; EGCg 200 ppm): 20.8%
average percent suppression in epitope detection, CD4 ([2]; EGCg 200 ppm): (13.3)* percent
percent expression of cell surface molecule CD49d ([3]; EGCg 100 ppm): 19.7%
average percent suppression in epitope detection, CD49d ([3]; EGCg 100 ppm): (54.1)** percent
percent expression of cell surface molecule CD49d ([3]; EGCg 200 ppm): 20.5%
average percent suppression in epitope detection, CD49d ([3]; EGCg 200 ppm): (52.2)** percent
blocking of CD49d by EGCG ([3]; summary of TABLE 1): blocked
Substance: (−)-epigallocatechin-3-o-gallate [EGCG]
